Results reported in patent US12319684B2 (Sanford Burnham Prebys Medical Discovery Institute, priority 2014, dated 2025).

Tests used:
[1] = biological target: T1, human apelin receptor (APJ, AGTRL-1, APLNR) (Homo sapiens, UniProt P35414); assay: APJ cAMP cell-based assay (forskolin-stimulated CHO cells, enzyme fragment complementation); conditions: for EC50: CHO cells expressing human APJ, forskolin-stimulated, 0.5 h incubation, 50% of control (apelin-13, 1 nM) response, read-out: APJ cAMP EC50; for Emax: CHO, 0.5 h, percentage of the maximal apelin-13 response at 1 nM (control), read-out: APJ cAMP % resp (efficacy)
T1 construct: host or cells: Chinese hamster ovary cells
T1 sequence (P35414 1-380): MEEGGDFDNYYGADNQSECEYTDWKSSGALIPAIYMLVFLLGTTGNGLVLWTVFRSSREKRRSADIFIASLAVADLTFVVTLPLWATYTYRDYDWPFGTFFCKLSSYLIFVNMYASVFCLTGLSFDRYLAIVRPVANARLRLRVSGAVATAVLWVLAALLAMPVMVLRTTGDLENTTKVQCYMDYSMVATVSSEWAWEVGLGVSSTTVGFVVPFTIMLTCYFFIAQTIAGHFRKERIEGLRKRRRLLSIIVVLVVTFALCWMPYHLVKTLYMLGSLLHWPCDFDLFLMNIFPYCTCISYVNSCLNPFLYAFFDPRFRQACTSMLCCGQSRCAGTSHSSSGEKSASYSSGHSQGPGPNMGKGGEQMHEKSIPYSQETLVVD

[2] = tested on: vasopressin release; conditions: intracerebral injection; cited from earlier work
[3] = tested on: abdominal aortic aneurysms; conditions: mouse model of abdominal aortic aneurysms; cited from earlier work

COc1ccccc1-n1c(OCc2cc(=O)n3cc(C)ccc3n2)nnc1-c1cccs1 [Example 83, 2-(((4-(2-methoxyphenyl)-5-(thiophen-2-yl)-4H-1,2,4-triazol-3-yl)oxy)methyl)-7-methyl-4H-pyrido[1,2-a]pyrimidin-4-one]
EC50 [1]: 45 nM
Emax [1]: 52%

COc1ccccc1-n1c(OCc2csc(-c3ccccc3)n2)nnc1-c1cccs1 [Example 84]
EC50 [1]: 680 nM
Emax [1]: 109%

COc1ccccc1-n1c(NCc2csc(-c3ccc(C)cc3)n2)nnc1-c1cccs1 [Example 86, [4-(2-Methoxy-phenyl)-5-thiophen-2-yl-4H-[1,2,4]triazol-3-yl]-(2-p-tolyl-thiazol-4-ylmethyl)-amine]
EC50 [1]: > 10000 nM

COc1ccccc1-n1c(NCc2coc(-c3ccc(C)cc3)n2)nnc1-c1cccs1 [Example 87, [4-(2-Methoxy-phenyl)-5-thiophen-2-yl-4H-[1,2,4]triazol-3-yl]-(2-p-tolyl-oxazol-4-ylmethyl)-amine]
EC50 [1]: > 10000 nM

apelin
reduction in plasma vasopressin concentrations [2]: 40%
reduction of aneurysm [3]: 50%
